EPA's ToxValDB 9.5
Where “and” joins values, the source holds several entries; their conditions need not be identical. Equal values may be shown once.

Key:
Rattus norvegicus [1] = conditions: for LEL: uterotrophic, Active; for NOEL / LOEL: Hershberger
Rattus norvegicus [2] = conditions: for NEL / LEL: Wistar; for NOAEL / LOAEL: Crl:WI (Han)
[3] = duration: 12 days, injection, subcutaneous, Wistar, active + Androgenic + androgenic
[4] = duration: 3 days, injection, subcutaneous
[5] = chronic, duration: 123 days, oral, gavage, F, Heart: Heart Weight, Relative
[6] = chronic, duration: 123 days, oral, gavage, F, Kidney: Kidney, Cortical Tubular Dilation, Multifocal + Whole Body: Body Weight Change
[7] = reproduction developmental, duration: 90 days, oral, gavage, M, generation: P0, P0: General Toxicity: Whole Body: Body Weight Change + P0: General Toxicity: Whole Body: Body Weight, Absolute + P0: General Toxicity: Whole…
[8] = reproduction developmental, duration: 123 days, oral, gavage, F, generation: P0, P0: General Toxicity: Whole Body: Body Weight Change + P0: General Toxicity: Whole Body: Body Weight, Absolute + P0: General Toxicity: Whole…
[9] = subchronic, duration: 90 days, oral, gavage, M, Kidney: Blood Urea Nitrogen (BUN), Blood + Kidney: Kidney, Cortical Tubular Dilation, Multifocal + Whole Body: Body Weight Change

C[C@H]1CCC[C@@H](O)CCC/C=C/c2cc(O)cc(O)c2C(=O)O1 [beta-Zearalenol]
LEL (Rattus norvegicus [1]; duration: 3 days, oral): 0.8 mg/day

CCCSP(=O)(OCC)SCCC [Ethoprop]
NOEL (Rattus norvegicus [1]; duration: 10 days, oral, gavage, Sprague-Dawley, active + Negative + Antiandrogenic + anti-androgenic + decrease in serum testosterone, decrease in epididymal wt at 6 mg/kg / thyroid …): 8 mg/kg-day

C[C@]12C=CC(=O)C[C@@H]1CC[C@@H]1[C@@H]2CC[C@@]2(C)[C@H]1CC[C@]2(C)O [Methyl-1-testosterone]
LOEL (Rattus norvegicus [1]; duration: 10 days, injection, subcutaneous, Wistar, active + Androgenic + androgenic): 1 mg/kg-day | LOEL (Rattus norvegicus [1]; [3]): 0.3 mg/kg-day | NOEL (Rattus norvegicus [1]; [3]): 0.03 mg/kg-day

Cc1c2ccccc2c(C)c2c1ccc1ccccc12 [7,12-Dimethylbenz(a)anthracene]
LEL (Rattus norvegicus [1]; duration: 1 days, injection, subcutaneous): 15 mg/kg-day

Cl.O=C(c1ccc(OCCN2CCCCC2)cc1)c1c(-c2ccc(O)cc2)sc2cc(O)ccc12 [Raloxifene hydrochloride]
LEL (Rattus norvegicus [1]; [4]): 0.5 mg/kg-day

O=S(=O)(O)CCC(F)(F)C(F)(F)C(F)(F)C(F)(F)C(F)(F)C(F)(F)F [6:2 Fluorotelomer sulfonic acid]
NEL (Rattus norvegicus [2]; chronic, duration: 123 days, oral, gavage, F, Blood: Albumin/Globulin (A/G) Ratio + Blood: Basophils + Blood: Calcium (CA), Blood + Blood: Chloride (CL), Blood + Blood: Cholesterol (CHOL…): 45 mg/kg-day | LEL (Rattus norvegicus [2]; [5]): 15 mg/kg-day | NEL (Rattus norvegicus [2]; [5]): 5 mg/kg-day | LEL (Rattus norvegicus [2]; [6]): 45 mg/kg-day | NEL (Rattus norvegicus [2]; [6]): 15 mg/kg-day | NOAEL (Rattus norvegicus [2]; developmental, duration: 34 days, parental, M/F, generation: F1, F1: Developmental: Nipples: Nipple Retention + F1: Developmental: Thyroid: Thyroid Gland Weight, Absolute + F1: Developmental: Thyroid: …): 45 mg/kg-day | NEL (Rattus norvegicus [2]; developmental, duration: 34 days, parental, M/F, generation: F1, F1: Nipples: Nipple Retention + F1: Thyroid: Thyroid Gland Weight, Absolute + F1: Thyroid: Thyroid Gland Weight, Relative + F1: Thyroid: …): 45 mg/kg-day | LOAEL (Rattus norvegicus [2]; [7]): 45 mg/kg-day | NOAEL (Rattus norvegicus [2]; [7]): 15 mg/kg-day | NOAEL (Rattus norvegicus [2]; reproduction developmental, duration: 90 days, oral, gavage, M, generation: P0, P0: Reproductive: Whole Body: Days of Cohabitation + P0: Reproductive: Whole Body: Fertility Index + P0: Reproductive: Whole Body: Percent …): 45 mg/kg-day | NEL (Rattus norvegicus [2]; reproduction developmental, duration: 90 days, oral, gavage, M, Whole Body: Days of Cohabitation + Whole Body: Fertility Index + Whole Body: Percent Mating): 45 mg/kg-day | NOAEL (Rattus norvegicus [2]; reproduction developmental, duration: 123 days, oral, gavage, F, generation: P0, P0: Developmental: Uterus: Abortions + P0: Developmental: Uterus: Litter Loss + P0: Reproductive: Vagina: Uterus (With Cervix) Weight, …): 45 mg/kg-day | NOAEL (Rattus norvegicus [2]; reproduction developmental, duration: 123 days, oral, gavage, F, generation: P0, P0: Developmental: Uterus: Post-Implantation Loss + P0: Developmental: Uterus: Pre-Implantation Loss + P0: Reproductive: Ovary: Ovary …): 45 mg/kg-day | LOAEL (Rattus norvegicus [2]; [8]): 45 mg/kg-day | NOAEL (Rattus norvegicus [2]; [8]): 15 mg/kg-day | NEL (Rattus norvegicus [2]; reproduction developmental, duration: 123 days, oral, gavage, F, Ovary: Ovary Histopathology + Ovary: Ovary Weight, Absolute + Uterus: Estrous Cycle, Length + Uterus: Post-Implantation Loss + Uterus: Pre-…): 45 mg/kg-day | NEL (Rattus norvegicus [2]; reproduction developmental, duration: 123 days, oral, gavage, F, generation: P0, P0: Uterus: Abortions + P0: Uterus: Resorptions, Mean/Litter + P0: Vagina: Uterus (With Cervix) Weight, Absolute + P0: Vagina: Vagina …): 45 mg/kg-day | NEL (Rattus norvegicus [2]; subchronic, duration: 90 days, oral, gavage, M, Blood: Albumin/Globulin (A/G) Ratio + Blood: Basophils + Blood: Calcium (CA), Blood + Blood: Chloride (CL), Blood + Blood: Cholesterol (CHOL…): 45 mg/kg-day | LEL (Rattus norvegicus [2]; [9]): 45 mg/kg-day | NEL (Rattus norvegicus [2]; [9]): 15 mg/kg-day | LEL (Rattus norvegicus [2]; subchronic, duration: 90 days, oral, gavage, M, Kidney: Kidney Weight, Absolute + Kidney: Kidney Weight, Relative + Liver: Albumin (A), Blood + Whole Body: Total Protein (TP), Blood): 5 mg/kg-day

CCOC(=O)C(C)(C)Oc1ccc(Cl)cc1 [Clofibrate]
LEL (Rattus norvegicus [1]; duration: 3 days, oral): 4 mg/kg-day

Oc1ccccc1-c1ccccc1 [2-Phenylphenol]
NOEL (Rattus norvegicus [1]; duration: 10 days, oral, gavage, Sprague-Dawley, inactive + Negative + Negative + anti-androgenic + decrease in ASTs, NS (1.6 d) delay PPS / accompanied by "minor" increase in liver wt and…): 250 mg/kg-day

O=c1oc2cc(O)ccc2c2oc3cc(O)ccc3c12 [Coumestrol]
LEL (Rattus norvegicus [1]; [4]): 1 mg/day

CCOC(=O)c1ccc(O)cc1 [Ethylparaben]
LEL (Rattus norvegicus [1]; [4]): 180 mg/kg-day

C[C@H]1CCC[C@@H](O)CCCCCc2cc(O)cc(O)c2C(=O)O1 [Taleranol]
LEL (Rattus norvegicus [1]; duration: 3 days, oral): 0.06 mg/day

CCCCCCC(=O)O[C@H]1CC[C@H]2[C@@H]3CCC4=CC(=O)CC[C@]4(C)[C@H]3CC[C@]12C [Testosterone enanthate]
LOEL (Rattus norvegicus [1]; duration: 10 days, oral, gavage, Sprague-Dawley, active + Androgenic + Negative + androgenic): 50 mg/kg-day

CCCCC(CC)CN1C(=O)C2C3C=CC(C3)C2C1=O (configuration not stated) [Octylbicycloheptenedicarboximide]
NOEL (Rattus norvegicus [1]; duration: 10 days, oral, gavage, Sprague-Dawley, inactive + Negative + Negative + neither + negative): 700 mg/kg-day

CC(C)(C)NC(=O)[C@H]1CC[C@H]2[C@@H]3CC[C@H]4NC(=O)C=C[C@]4(C)[C@H]3CC[C@]12C [Finasteride]
LOEL (Rattus norvegicus [1]; duration: 5 days, oral, gavage, Sprague-Dawley, active + Antiandrogenic + anti-androgenic + decreased age at PPS at 20mg/kg, increased at 80 mg/kg (with 7.8% increased liver wt at high …): 20 mg/kg-day and 25 mg/kg-day | LOEL (Rattus norvegicus [1]; duration: 7 days, oral, gavage, Sprague-Dawley, active + Antiandrogenic + anti-androgenic + decreased age at PPS at 20mg/kg, increased at 80 mg/kg (with 7.8% increased liver wt at high …): 20 mg/kg-day and 25 mg/kg-day
